This is an account of results in patent US20240373877A1, “ANIMAL FOOD PRODUCT AND METHOD AND APPARATUS THEREFOR” (priority 2023, published 2024).

For test [1], the system named is bovine rumen microbes. Description: Rumen microbial methane production in bovine rumen incubations. Type of test: cell-based. The note with it: Yeast 2%, Monensin 10 μM. As to the method:
THYM was also found to have a very pronounced inhibition of methane production by rumen microbes.
Bovine rumen microbes were incubated anaerobically for 24 hours at 39° C. with a silage: corn substrate. Bar A indicates basal control incubation, and bars B-G indicate additions. […] Monensin (Rumensin) was used as a positive inhibitory control. The hop acid content of the THYM samples in incubation bars E & F was 100 and 60 μg/ml for alpha and beta acids respectively, similar to the concentrations of alpha and beta acids, 100 μg/ml, added in bars B and C.

The nature of test [2]: Beef cattle feed trial (weight gain, feed efficiency, BUN). Type of test: in vivo, Weanling Angus-X steers.

For orientation: inhibition means the percentage by which the read-out fell short of the control. A low value points to a weak effect. For the molecule `CC[C@@]1([C@@H]2O[C@@H]([C@H]3O[C@@](O)(CO)[C@H](C)C[C@@H]3C)C[C@@H]2C)CC[C@H]([C@]2(C)CC[C@]3(C[C@H](O)[C@@H](C)[C@@H]([C@@H](C)[C@@H](OC)[C@H](C)C(=O)O)O3)O2)O1` [Monensin, monensin], in test [1] (THYM 0.4% (of DM), vs paired control, p < 0.05), testing at 10 µM gave an inhibition of 68%. The “Methane Production, Experiment AVG” value in test [1] (THYM 0.4%, N = 3 or 4) amounted to 11152 ppm. In addition, the “Average Daily Gain” value in test [2] (9 weeks, monensin 200 mg/animal or 1% THYM in rations) amounted to 1.65 kg/day. Besides, in test [2] (9 weeks, monensin 200 mg/animal or 1% THYM in rations, M & T vs C p = 0.07), the “Gain to Feed Ratio” value stood at 0.38 kg/kg. In test [2] (feed trial, FIG. 6), the “blood urea nitrogen (BUN) level” value is listed as “significantly lower”.
